Reference: US8895733B2 (Novartis AG, priority 2010, dated 2014)
pIC50: −log10 of the molar value.

Molecular target: T1, Nav 1.7 (Homo sapiens, UniProt Q15858)
T1 construct: expressed in transfected cells
Experiment: Whole-cell voltage clamp electrophysiology, automated patch clamp (marker c in Table of Examples)
Assay type: cell-based
Conditions: marker c: Automated patch clamp data; read-out: Nav 1.7 activity
Description: a.IonWork Quattro data, b=Manual patch clamp data, c=Automated patch clamp data M=Method
Whole-Cell Voltage Clamp Electrophysiology Assay
Patch-clamp electrophysiology is considered the gold standard technique for investigation of ion channel function and pharmacology. Using this method, sodium channel currents can be measured in cells, which stably (or transiently) express the sodium channel subtype of interest. Application of compounds during such experiments provides a functional measure of the activity and potency of compounds affecting the ion channel of interest.
Electrophysiological studies can be performed using automated or manual patch-clamp techniques. Automated patch-clamp instruments suitable for this work include the Ion Works HT (MDS), Ion Works Quattro (MDS), PatchLiner (Nanion technologies), Port-A-Patch (Nanion technologies), QPatch (Sophion) or any other suitable platform.
For recording in automated patch-clamp instruments, cells expressing the voltage-gated sodium channel subtype of interest are dispensed in appropriate chips (plates with more than one recording chambers each containing one or more apertures to generate whole-cell patches), as provided by the manufacturer. Typically, the whole-cell perforated patch configuration is used for probing the pharmacology of compounds in automated patch-clamp electrophysiology on sodium channels. Extracellular and intracellular buffers for such experiments are composed according to the literature, or according to the instructions provided by the manufacturer of the instruments. Test solutions, which contain the compounds to be tested, are applied to the cells expressing the sodium channel of interest by a pipetting system, typically integrated into the robots.
A suitable voltage stimulus protocol is used to activate voltage-gated sodium channel proteins of interest. A typical stimulus protocol may consist of sweeps of sequential voltage pulses starting from a holding potential (i.e. −65 mV), to a more positive and depolarising test pulse potential (i.e. −10 mV) and finally to a more negative and hyperpolarising potential (i.e. −100 mV). According to the biophysics of the voltage-gated ion channel of interest and interest in channel configuration the voltages and durations of the pulses as well as the overall frequency of sweeps applied might vary. Accordingly, a stimulus protocol was designed to assess compounds due to their potential to block NaV1.7 channels primarily in inactivated state. Selectivity over other voltage-gated sodium channel members was assessed by protocols that reflect the native function of the channels (i.e. heart rate or firing of neurons).

T1 sequence (Q15858 whole entry): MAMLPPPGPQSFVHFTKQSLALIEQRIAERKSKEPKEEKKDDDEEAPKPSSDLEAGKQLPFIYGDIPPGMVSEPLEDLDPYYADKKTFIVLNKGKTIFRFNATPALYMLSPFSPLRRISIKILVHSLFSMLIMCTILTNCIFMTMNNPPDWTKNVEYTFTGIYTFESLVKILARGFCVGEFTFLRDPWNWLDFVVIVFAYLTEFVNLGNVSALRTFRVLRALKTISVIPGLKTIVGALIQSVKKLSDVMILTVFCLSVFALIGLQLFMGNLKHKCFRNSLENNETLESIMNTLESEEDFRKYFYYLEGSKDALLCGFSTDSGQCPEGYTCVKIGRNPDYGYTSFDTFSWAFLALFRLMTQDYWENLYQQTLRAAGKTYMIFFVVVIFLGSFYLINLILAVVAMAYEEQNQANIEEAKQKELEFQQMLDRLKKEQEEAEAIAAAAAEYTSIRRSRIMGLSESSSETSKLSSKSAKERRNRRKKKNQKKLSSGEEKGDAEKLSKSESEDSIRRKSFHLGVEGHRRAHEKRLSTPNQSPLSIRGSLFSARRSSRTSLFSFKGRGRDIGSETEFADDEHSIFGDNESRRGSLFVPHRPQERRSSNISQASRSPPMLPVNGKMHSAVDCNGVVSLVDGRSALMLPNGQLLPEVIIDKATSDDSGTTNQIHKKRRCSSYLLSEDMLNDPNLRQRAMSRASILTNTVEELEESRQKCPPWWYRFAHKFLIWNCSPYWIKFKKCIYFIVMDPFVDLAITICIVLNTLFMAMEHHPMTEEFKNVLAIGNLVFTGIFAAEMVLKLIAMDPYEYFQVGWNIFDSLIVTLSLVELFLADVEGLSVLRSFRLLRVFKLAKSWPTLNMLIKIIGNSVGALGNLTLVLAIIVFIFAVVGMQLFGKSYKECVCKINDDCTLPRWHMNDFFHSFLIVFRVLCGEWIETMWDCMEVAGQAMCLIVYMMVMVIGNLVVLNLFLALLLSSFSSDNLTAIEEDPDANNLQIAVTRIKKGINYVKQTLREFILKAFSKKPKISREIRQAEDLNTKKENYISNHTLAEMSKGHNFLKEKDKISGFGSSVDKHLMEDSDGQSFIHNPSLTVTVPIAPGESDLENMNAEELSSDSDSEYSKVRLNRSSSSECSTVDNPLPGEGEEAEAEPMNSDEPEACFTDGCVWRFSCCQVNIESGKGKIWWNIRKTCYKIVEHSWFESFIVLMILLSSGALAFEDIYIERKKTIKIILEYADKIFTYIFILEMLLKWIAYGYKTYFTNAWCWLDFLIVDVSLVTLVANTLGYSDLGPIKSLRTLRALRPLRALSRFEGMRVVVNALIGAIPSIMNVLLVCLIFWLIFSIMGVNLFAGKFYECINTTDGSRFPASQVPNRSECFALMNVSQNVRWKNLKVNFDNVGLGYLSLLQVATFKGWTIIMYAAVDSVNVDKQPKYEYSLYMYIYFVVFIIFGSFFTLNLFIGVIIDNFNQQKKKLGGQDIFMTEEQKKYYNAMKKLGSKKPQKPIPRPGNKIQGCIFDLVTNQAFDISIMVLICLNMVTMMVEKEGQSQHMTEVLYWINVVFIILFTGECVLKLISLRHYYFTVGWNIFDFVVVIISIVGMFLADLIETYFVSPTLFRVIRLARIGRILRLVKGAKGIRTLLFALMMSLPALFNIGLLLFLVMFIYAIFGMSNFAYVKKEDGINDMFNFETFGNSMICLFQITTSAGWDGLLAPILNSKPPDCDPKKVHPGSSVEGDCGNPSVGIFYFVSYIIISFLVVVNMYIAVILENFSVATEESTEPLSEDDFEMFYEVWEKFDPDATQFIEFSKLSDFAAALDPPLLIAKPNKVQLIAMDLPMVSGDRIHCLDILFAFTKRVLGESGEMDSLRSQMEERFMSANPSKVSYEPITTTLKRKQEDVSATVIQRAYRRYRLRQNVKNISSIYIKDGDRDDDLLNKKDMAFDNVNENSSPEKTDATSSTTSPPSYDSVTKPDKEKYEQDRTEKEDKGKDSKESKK

SMILES | pIC50
CN(c1ccccc1)c1nc(N)nc(-c2noc(-c3ccc(F)cc3)n2)n1 [Example 122, 6-[5-(4-Fluoro-phenyl)-[1,2,4]oxadiazol-3-yl]-N-methyl-N-phenyl-[1,3,5]triazine-2,4-diamine] | 6.19
CN(c1ccccc1)c1nc(N)nc(-c2noc(-c3cccc(F)c3)n2)n1 [Example 123, 6-[5-(3-Fluoro-phenyl)-[1,2,4]oxadiazol-3-yl]-N-methyl-N-phenyl-[1,3,5]triazine-2,4-diamine] | 6.03
CN(c1ccccc1)c1nc(N)nc(-c2noc(-c3ccccc3F)n2)n1 [Example 124, 6-[5-(2-Fluoro-phenyl)-[1,2,4]oxadiazol-3-yl]-N-methyl-N-phenyl-[1,3,5]triazine-2,4-diamine] | 6.37
Cc1ccsc1-c1nc(-c2nc(N)nc(N(C)c3ccccc3)n2)no1 [Example 126, N-Methyl-6-[5-(3-methyl-thiophen-2-yl)-[1,2,4]oxadiazol-3-yl]-N-phenyl-[1,3,5]triazine-2,4-diamine] | 6.11
CN(c1ccccc1)c1nc(N)nc(-c2noc(-c3cnco3)n2)n1 [Example 127, N-Methyl-6-(5-oxazol-5-yl-[1,2,4]oxadiazol-3-yl)-N-phenyl-[1,3,5]triazine-2,4-diamine] | 5.68
CN(c1ccccc1)c1nc(N)nc(-c2noc(-c3ncco3)n2)n1 [Example 128, N-Methyl-6-(5-oxazol-2-yl-[1,2,4]oxadiazol-3-yl)-N-phenyl-[1,3,5]triazine-2,4-diamine] | 5.82
Cc1ccc(-c2nc(-c3nc(N)nc(N(C)c4ccccc4)n3)no2)s1 [Example 129, N-Methyl-6-[5-(5-methyl-thiophen-2-yl)-[1,2,4]oxadiazol-3-yl]-N-phenyl-[1,3,5]triazine-2,4-diamine] | 5.59
CN(c1ccccc1)c1nc(N)nc(-c2noc(N3CCCC3)n2)n1 [Example 131, N-Methyl-N-phenyl-6-(5-pyrrolidin-1-yl-[1,2,4]oxadiazol-3-yl)-[1,3,5]triazine-2,4-diamine] | 5.29
CN(c1nc(N)nc(-c2noc(-c3ccc(OCC4CC4)nc3)n2)n1)c1ccccc1F [Example 134, 6-{5-[6-(cyclopropylmethoxy)pyridin-3-yl]-1,2,4-oxadiazol-3-yl}-2-N-(2-fluorophenyl)-2-N-methyl-1,3,5-triazine-2,4-diamine] | 7.17
Nc1nc(Nc2cccc(F)c2)nc(-c2noc(-c3ccc(OCC4CC4)nc3)n2)n1 [Example 136, 6-{5-[6-(cyclopropylmethoxy)pyridin-3-yl]-1,2,4-oxadiazol-3-yl}-2-N-(3-fluorophenyl)-1,3,5-triazine-2,4-diamine] | 7.19
CN(c1ccccc1)c1nc(N)nc(-c2noc(C(=O)N3CC(Oc4ccc(F)cc4)C3)n2)n1 [Example 137] | 6.25
Nc1nc(Nc2ccccc2F)nc(-c2noc(-c3ccc(OCC4CC4)nc3)n2)n1 [Example 138, 6-{5-[6-(cyclopropylmethoxy)pyridin-3-yl]-1,2,4-oxadiazol-3-yl}-2-N-(2-fluorophenyl)-1,3,5-thazine-2,4-diamine] | 6.97
Nc1nc(Nc2cccc(F)c2F)nc(-c2noc(-c3ccc(OCC4CC4)nc3)n2)n1 [Example 139, 6-{5-[6-(cyclopropylmethoxy)pyridin-3-yl]-1,2,4-oxadiazol-3-yl}-2-N-(2,3-difluorophenyl)-1,3,5-triazine-2,4-diamine] | 6.84
CN(c1nc(N)nc(-c2noc(-c3ccc(OCC4CC4)nc3)n2)n1)c1cccc(F)c1F [Example 140, 6-{5-[6-(cyclopropylmethoxy)pyridin-3-yl]-1,2,4-oxadiazol-3-yl}-2-N-(2,3-difluorophenyl)-2-N-methyl-1,3,5-triazine-2,4-diamine] | 7.07
CN(c1ccccc1)c1nc(N)nc(-c2noc(-c3ccc(OC4CCOC4)nc3)n2)n1 (stereo not shown) [Example 141, 2-N-methyl-6-{5-[6-(oxolan-3-yloxy)pyridin-3-yl]-1,2,4-oxadiazol-3-yl}-2-N-phenyl-1,3,5-triazine-2,4-diamine] | 6.58
CN(c1ccccc1)c1nc(N)nc(-c2noc(-c3ccc(C(F)(F)F)nc3Cl)n2)n1 [Example 142, 6-{5-[2-chloro-6-(trifluoromethyl)pyridin-3-yl]-1,2,4-oxadiazol-3-yl}-2-N-methyl-2-N-phenyl-1,3,5-triazine-2,4-diamine] | 5.24

SMILES | pIC50
COCCOCc1ccc(-c2nc(-c3nc(N)nc(N(C)c4ccccc4)n3)no2)cn1 [Example 143, 6-{5-[6-(2-Methoxy-ethoxymethyl)-pyridin-3-yl]-[1,2,4]oxadiazol-3-yl}-N-methyl-N-phenyl-[1,3,5]triazine-2,4-diamine] | 5.45
CN(c1ccccc1)c1nc(N)nc(-c2noc(-c3ccc(COC4CCOC4)nc3)n2)n1 (stereo not shown) [Example 144, N-Methyl-N-phenyl-6-{5-[6-(tetrahydro-furan-3-yloxymethyl)-pyridin-3-yl]-[1,2,4]oxadiazol-3-yl}-[1,3,5]triazine-2,4-diamine] | 5.76
CN(c1ccccc1)c1nc(N)nc(-c2noc(-c3ccc(OCC4CC4)nc3)n2)n1 [Example 146, 6-{5-[6-(cyclopropylmethoxy)pyridin-3-yl]-1,2,4-oxadiazol-3-yl}-2-N-methyl-2-N-phenyl-1,3,5-triazine-2,4-diamine] | 6.73
CCN(c1ccccc1)c1nc(N)nc(-c2noc(-c3ccc(OCC(F)(F)F)nc3)n2)n1 [Example 147, 2-N-ethyl-2-N-phenyl-6-{5-[6-(2,2,2-trifluoroethoxy)pyridin-3-yl]-1,2,4-oxadiazol-3-yl}-1,3,5-triazine-2,4-diamine] | 7.38
CCOc1ccc(-c2nc(-c3nc(N)nc(N(C)c4ccccc4)n3)no2)cn1 [Example 148, 6-[5-(6-ethoxypyridin-3-yl)-1,2,4-oxadiazol-3-yl]-2-N-methyl-2-N-phenyl-1,3,5-triazine-2,4-diamine] | 6.49
CC(C)Oc1ccc(-c2nc(-c3nc(N)nc(N(C)c4ccccc4)n3)no2)cn1 [Example 149, 2-N-methyl-2-N-phenyl-6-{5-[6-(propan-2-yloxy)pyridin-3-yl]-1,2,4-oxadiazol-3-yl}-1,3,5-triazine-2,4-diamine] | 6.85
Nc1nc(-c2noc(-c3ccc(OCC(F)(F)F)nc3)n2)nc(N(CC(F)(F)F)c2ccccc2)n1 [Example 150, 2-N-phenyl-6-{5-[6-(2,2,2-trifluoroethoxy)pyridin-3-yl]-1,2,4-oxadiazol-3-yl}-2-N-(2,2,2-trifluoroethyl)-1,3,5-triazine-2,4-diamine] | 6.65
FC(F)(F)CNc1nc(Nc2ccccc2)nc(-c2noc(-c3ccc(OCC(F)(F)F)nc3)n2)n1 [Example 151, 2-N-phenyl-6-{5-[6-(2,2,2-trifluoroethoxy)pyridin-3-yl]-1,2,4-oxadiazol-3-yl}-4-N-(2,2,2-trifluoroethyl)-1,3,5-triazine-2,4-diamine] | 5.83
Cc1cccnc1-c1nc(-c2nc(N)nc(N(C)c3ccccc3)n2)no1 [Example 152, 2-N-methyl-6-[5-(3-methylpyridin-2-yl)-1,2,4-oxadiazol-3-yl]-2-N-phenyl-1,3,5-triazine-2,4-diamine] | 5.79
CN(c1ccccc1)c1nc(N)nc(-c2noc(-c3ccc(F)cn3)n2)n1 [Example 153, 6-[5-(5-fluoropyridin-2-yl)-1,2,4-oxadiazol-3-yl]-2-N-methyl-2-N-phenyl-1,3,5-triazine-2,4-diamine] | 5.86
Cc1cc(C)c(-c2nc(-c3nc(N)nc(N(C)c4ccccc4)n3)no2)cn1 [Example 154, 6-[5-(4,6-dimethylpyridin-3-yl)-1,2,4-oxadiazol-3-yl]-2-N-methyl-2-N-phenyl-1,3,5-triazine-2,4-diamine] | 5.30
CN(c1ccccc1)c1nc(N)nc(-c2noc(-c3cccc(OCC(F)(F)F)n3)n2)n1 [Example 155, 2-N-methyl-2-N-phenyl-6-{5-[6-(2,2,2-trifluoroethoxy)pyridin-2-yl]-1,2,4-oxadiazol-3-yl}-1,3,5-triazine-2,4-diamine] | 5.34
COCCNc1nc(Nc2ccccc2)nc(-c2noc(-c3ccc(OCC(F)(F)F)nc3)n2)n1 [Example 157, 2-N-(2-methoxyethyl)-4-N-phenyl-6-{5-[6-(2,2,2-trifluoroethoxy)pyridin-3-yl]-1,2,4-oxadiazol-3-yl}-1,3,5-triazine-2,4-diamine] | 6.32
CN(c1ccccc1)c1nc(N)nc(-c2noc(-c3ccc(F)nc3)n2)n1 [Example 158, 6-[5-(6-fluoropyridin-3-yl)-1,2,4-oxadiazol-3-yl]-2-N-methyl-2-N-phenyl-1,3,5-triazine-2,4-diamine] | 5.48
CN(c1ccccc1)c1nc(N)nc(-c2noc(C3CCN(C(=O)C(F)(F)F)CC3)n2)n1 [Example 159, 1-[4-(3-{4-Amino-6-[methyl(phenyl)amino]-1,3,5-triazin-2-yl}-1,2,4-oxadiazol-5-yl)piperidin-1-yl]-2,2,2-trifluoroethan-1-one] | 5.06
